Earlier results on 1 substance are cited in US8318912B2, “Targeted immune conjugate comprising an antibody to glycophorin A and a M2e peptide” (priority 2006, dated 2012).

What is called Kd is the constant that tells how readily two partners part at equilibrium.

This series has as its target vitamin B12-binding protein. Particulars: alternative docking pair to biotin-avidin; read-out: Kd of vitamin B12 bound by vitamin B12-binding protein.

As to cyanocobalamin [vitamin B12], the Kd was 100 pM.
